{"source": "patent US20230392140A1", "about": "“REVERSE TRANSCRIPTION OF POLYNUCLEOTIDES COMPRISING UNNATURAL NUCLEOTIDES” (Synthorx, Inc., priority 2020, published 2023)", "key": {"[1]": {"tested_on": "E. coli SSO", "experiment": "T-RT retention of sfGFP mRNA extracted from SSO in vivo translation experiments", "format": "cell-based", "parameters": "unit of the concentration uncertain", "settings": "for T-RT retention: mRNA sfGFP(GXT), n = 3", "method": "(§1) Reverse transcription. The reverse transcription reactions were conducted according to the manufacturer's instructions of each reverse transcriptase with the following modifications. In all reverse transcription reactions, 1 μg mRNA or 20 ng tRNA, 0.5 mM dNTP and 0.2 mM dNaMTP or dTPT3TP per 20 μL reaction were used unless stated otherwise. For SuperScript III (18080044, ThermoFisher), reactions were incubated at 55° C. for 45 min, inactivated at 70° C. for 15 min, followed by RNase H (M0297S, New England Biolabs, (NEB)) and RNase A (R1253, ThermoFisher) digestion. For SuperScript IV (18090010, ThermoFisher), reactions were incubated at 55° C. for 20 min, inactivated at 80° C. for 10 min, followed by RNase H, RNase A, and Proteinase K (P8107S, New England Biolabs, (NEB)) digestion. For AMV reverse transcriptase (M0277S, New England Biolabs, (NEB)), reactions were incubated at 42° C. for 60 min, inactivated at 80° C. for 5 min, followed by RNase H and RNase A digestion. After digestion, 10 μL of each reaction mixture was denatured with RNA loading dye (B0363S, New England Biolabs, (NEB)) and subjected to 10% denaturing polyacrylamide gel electrophoresis with 8 M urea (CAS 57-13-6, Sigma Aldrich) for cDNA detection. The other 10 μL of the reaction mixture was purified using a commercial RNA purification kit (D7011, Zymo Research; Irvine, CA) and the product cDNA was quantified using Qubit.\n(§2) SSO in vivo translation. A 2 mL overnight culture of YZ3+pGEX-MbPylRS TetR cells in 2×YT (Y2377, Sigma Aldrich) supplemented with 50 mM potassium phosphate (CAS 7778-77-0, Sigma Aldrich), 5 μg/mL chloramphenicol (CAS 56-75-7, Sigma Aldrich) and 100 μg/mL carbenicillin (C1613, Sigma Aldrich) (herein afterward referred to in this section as “media”) was diluted to an OD600 of 0.03 in the same media, and grown to an OD600 of 0.3 to 0.4. The culture was rapidly cooled in an ice water bath for 5 min with shaking, and then pelleted at 3,200×g for 10 min. Cells were next washed twice with one culture volume of pre-chilled autoclaved Milli-Q H2O. Cells were then resuspended in additional chilled H2O, to an OD600 of 50-60. For each sample tested, 50 μL of the resulting electrocompetent cells were combined with 0.5 ng of Golden Gate assembled plasmid containing the UBP embedded within the sfGFP and tRNA^Pyl genes and then transferred to a pre-chilled electroporation cuvette (0.2 cm gap). Cells were electroporated (Gene Pulser II; Bio-Rad) according to the manufacturer's instructions for bacteria ([…], 2.5 μF, and 200Ω resistor), then immediately diluted with 950 μL of pre-warmed media. 10 μL of this dilution was then diluted with pre-warmed media to a final volume of 50 μL, supplemented with […] and 10 μM dTPT3TP. The transformation was allowed to recover at 37° C. for 1 h. The recovery culture was plated on solid media supplemented with 50 μg/mL zeocin (R25001, ThermoFisher), 150 μM dNaMTP, 10 μM dTPT3TP, and 2% w/v agar, then allowed to grow at 37° C. overnight.\n(§3) Single colonies were isolated and used to inoculate 300 μL liquid media supplemented with 50 μg/mL zeocin (herein afterward referred to in this section as “growth media”) and provided 150 μM dNaMTP, and 10 μM dTPT3TP, then monitored for cell growth via OD600 using an Envision 2103 Multilabel Plate Reader (Perkin Elmer) with a 590/20 nm filter. Cells were collected at an OD600 of ˜0.7, and then an aliquot (100 μL) was subjected to miniprep. Isolated plasmids were subjected to biotin shift assay to determine UBP retention. […] At an OD600 of cultures were supplemented with 250 μM NaMTP and 30 μM TPT3TP unless stated otherwise, as well as 10 mM of the ncAA N6-(2-azidoethoxy)-carbonyl-L-lysine (AzK). The culture was then grown for and additional 20 min before adding IPTG (CAS 367-93-1, Sigma Aldrich) to a concentration of 1 mM and grown for 1 h to induce the transcription of the T7 RNA polymerase, the tRNA^Pyl, and the PylRS. […]"}, "[2]": {"tested_on": "E. coli SSO", "experiment": "T-RT retention of M. mazei tRNA extracted from SSO in vivo translation experiments", "format": "cell-based", "parameters": "unit of the concentration uncertain", "settings": "for T-RT retention: tRNA(AYC), n = 3", "method": "as §1, §2, §3"}, "[3]": {"tested_on": "SuperScript III reverse transcriptase", "settings": "10 ng RNA per reaction, replicate 1, unnatural dNTP supplied, 55 C"}}, "note": "Read-outs that look alike come from different tables or passages of the source.", "data": [{"compound": "COc1cc2ccccc2cc1[C@@H]1O[C@H](COP(=O)(O)OP(=O)(O)OP(=O)(O)O)[C@@H](O)[C@H]1O", "note": "[NaMTP]", "values": [{"measurement": "retention of NaM in the mRNA as NaMTP concentration was decreased", "setting": "[1]; TPT3TP held constant at 250 µM, until NaMTP dropped to less than 50 μM", "result": "remained high"}, {"measurement": "T-RT retention", "setting": "[1]; NaMTP concentration 12.5 µM", "result": 0.70}, {"measurement": "T-RT retention", "setting": "[1]; NaMTP concentration 25 µM", "result": 0.81}, {"measurement": "T-RT retention", "setting": "[1]; NaMTP concentration 50 µM", "result": 0.88}, {"measurement": "T-RT retention", "setting": "[1]; NaMTP concentration 125 µM", "result": 0.94}, {"measurement": "T-RT retention", "setting": "[1]; NaMTP concentration 250 µM", "result": 0.93}]}, {"compound": "O=P(O)(O)OP(=O)(O)OP(=O)(O)OC[C@H]1O[C@@H](n2ccc3ccsc3c2=S)[C@H](O)[C@@H]1O", "note": "[TPT3TP]", "values": [{"measurement": "retention of TPT3 in the tRNA as TPT3TP concentration was varied", "setting": "[2]; NaMTP held constant at 250 (unit uncertain), even at the lowest concentration examined (10 μM)", "result": "remained high"}, {"measurement": "T-RT retention", "setting": "[2]; TPT3TP concentration 12.5 (unit uncertain)", "result": 0.95}, {"measurement": "T-RT retention", "setting": "[2]; TPT3TP concentration 25 (unit uncertain)", "result": 0.97}, {"measurement": "T-RT retention", "setting": "[2]; TPT3TP concentration 50 (unit uncertain)", "result": 0.98}, {"measurement": "T-RT retention", "setting": "[2]; TPT3TP concentration 125 (unit uncertain)", "result": 0.95}, {"measurement": "T-RT retention", "setting": "[2]; TPT3TP concentration 250 (unit uncertain)", "result": 0.94}]}, {"compound": "M. mazei tRNA with NaM anticodon", "values": [{"measurement": "activity (full-length product ratio)", "setting": "[3]; NaM ribonucleotide at second nucleotide of anticodon, 0.8789 at 500 ng", "result": 0.973}]}, {"compound": "M. mazei tRNA with TPT3 anticodon", "values": [{"measurement": "activity (full-length product ratio)", "setting": "[3]; TPT3 ribonucleotide at second nucleotide of anticodon, 0.4423 at 500 ng", "result": 0.917}]}]}
